Literature values as cited in patent publication US6951877B2, “Materials and methods for treating hypercholesterolemia” (ARYx Therapeutics, Inc., priority 2002, dated 2005).
Like-named read-outs stand apart in the source and are kept apart here.

Tests used:
[1] = test system: patients
[2] = test system: patients; remark: listed apart in the source
[3] = test system: asymptomatic, middle-aged men with primary hypercholesterolemia

## CC(C)c1c(C(=O)Nc2ccccc2)c(-c2ccccc2)c(-c2ccc(F)cc2)n1CC[C@@H](O)C[C@@H](O)CC(=O)O [atorvastatin]
[1]; 40 mg
  patients with elevated liver enzymes: 0.6%
[1]; 80 mg
  patients with elevated liver enzymes: 2.3%
[1]; doses of 10 or 20 mg
  patients with elevated liver enzymes: 0.2%

## COCc1c(C(C)C)nc(C(C)C)c(/C=C/[C@@H](O)C[C@@H](O)CC(=O)O)c1-c1ccc(F)cc1 [cerivastatin]
[2]; all reports associated with use of cerivastatin
  U.S. deaths due to severe rhabdomyolysis reported to FDA: 31
[2]; concomitant gemfibrozil use
  U.S. deaths due to severe rhabdomyolysis reported to FDA: 12

## Cc1ccc(C)c(OCCCC(C)(C)C(=O)O)c1 [gemfibrozil]
[3]; over the 5-year follow-up period
  reduction in CHD risk: 34%
[3]; treatment with gemfibrozil
  HDL cholesterol: increased HDL cholesterol
  LDL cholesterol: lowered LDL, cholesterol
